Our source for the Km, kcat and kcat/Km values is PMC10902378, “Effective engineering of a ketoreductase for the biocatalytic synthesis of an ipatasertib precursor” (Communications Chemistry, 2024).

Residue numbers refer to the chain shown, from its start. Numbers in names are those of the source.

For series [1], the target named is T1, Ssal-KRED (Sporobolomyces salmonicolor, UniProt Q9UUN9, F97W/T134V/S224A/A238K/L241M/M242W/Q245S/Y246G/L316M/T342M).
T1 construct: N-terminal 6xHis-tag, pET28b(+), purified; recombinant from E. coli
T1 sequence (Q9UUN9 2-343 F97W/T134V/S224A/A238K/L241M/M242W/Q245S/Y246G/L316M/T342M): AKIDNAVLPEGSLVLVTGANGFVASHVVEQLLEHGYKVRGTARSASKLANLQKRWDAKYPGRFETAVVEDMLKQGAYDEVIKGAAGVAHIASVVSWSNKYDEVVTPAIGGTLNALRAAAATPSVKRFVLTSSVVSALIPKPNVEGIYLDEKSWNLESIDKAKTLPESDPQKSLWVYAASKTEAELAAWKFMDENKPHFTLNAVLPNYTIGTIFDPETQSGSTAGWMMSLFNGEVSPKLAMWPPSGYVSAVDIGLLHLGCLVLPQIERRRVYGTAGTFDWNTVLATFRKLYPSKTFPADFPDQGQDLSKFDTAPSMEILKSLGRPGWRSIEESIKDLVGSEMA
Kind of series: UV assay at […] nm, Michaelis-Menten fit. Format: biochemical. The following applies: apparent; NADP+/iPrOH as hydride donor; purified His-tagged enzyme; read-out: app. KM.

Series [2] concerns the target T2, Ssal-KRED (Sporobolomyces salmonicolor, UniProt Q9UUN9, F97W/L241M/M242W/Q245S/L316M/T342M).
T2 construct: N-terminal 6xHis-tag, pET28b(+), purified; recombinant from E. coli
T2 sequence (Q9UUN9 2-343 F97W/L241M/M242W/Q245S/L316M/T342M): T1 sequence (Q9UUN9 2-343 F97W/T134V/S224A/A238K/L241M/M242W/Q245S/Y246G/L316M/T342M) with V133T, A223S, K237A, G245Y
Put plainly: UV assay at […] nm, Michaelis-Menten fit. It is filed as biochemical. The following applies: apparent; NADP+/iPrOH as hydride donor; purified His-tagged enzyme; read-out: app. KM.

For series [3], the target named is T3, Ssal-KRED (Sporobolomyces salmonicolor, UniProt Q9UUN9, F97W/A238K/L241M/M242W/Q245S/L316M/T342M).
T3 construct: N-terminal 6xHis-tag, pET28b(+), purified; recombinant from E. coli
T3 sequence (Q9UUN9 2-343 F97W/A238K/L241M/M242W/Q245S/L316M/T342M): T1 sequence (Q9UUN9 2-343 F97W/T134V/S224A/A238K/L241M/M242W/Q245S/Y246G/L316M/T342M) with V133T, A223S, G245Y
Kind of series: UV assay at […] nm, Michaelis-Menten fit. As to conditions: apparent; NADP+/iPrOH as hydride donor; purified His-tagged enzyme; read-out: app. KM. Format: biochemical.

Series [4] has as its target T4, Ssal-KRED (Sporobolomyces salmonicolor, UniProt Q9UUN9, F97W/S224A/A238K/L241M/M242W/Q245S/Y246G/L316M/T342M).
T4 construct: N-terminal 6xHis-tag, pET28b(+), purified; recombinant from E. coli
T4 sequence (Q9UUN9 2-343 F97W/S224A/A238K/L241M/M242W/Q245S/Y246G/L316M/T342M): T1 sequence (Q9UUN9 2-343 F97W/T134V/S224A/A238K/L241M/M242W/Q245S/Y246G/L316M/T342M) with V133T
Put plainly: UV assay at […] nm, Michaelis-Menten fit. The following applies: apparent; NADP+/iPrOH as hydride donor; purified His-tagged enzyme; read-out: app. KM. Format: biochemical.

Series [5] has as its target T5, Ssal-KRED (Sporobolomyces salmonicolor, UniProt Q9UUN9, F97W/L241M/M242W/Q245S).
T5 construct: N-terminal 6xHis-tag, pET28b(+), purified; recombinant from E. coli
T5 sequence (Q9UUN9 2-343 F97W/L241M/M242W/Q245S): T1 sequence (Q9UUN9 2-343 F97W/T134V/S224A/A238K/L241M/M242W/Q245S/Y246G/L316M/T342M) with V133T, A223S, K237A, G245Y, M315L, M341T
Kind of series: UV assay at […] nm, Michaelis-Menten fit. It is filed as biochemical. The following applies: apparent; NADP+/iPrOH as hydride donor; purified His-tagged enzyme; read-out: app. KM.

Series [6] concerns the target T6, Ssal-KRED (Sporobolomyces salmonicolor, UniProt Q9UUN9).
T6 construct: N-terminal 6xHis-tag, pET28b(+), purified; recombinant from E. coli
T6 sequence (Q9UUN9 2-343): T1 sequence (Q9UUN9 2-343 F97W/T134V/S224A/A238K/L241M/M242W/Q245S/Y246G/L316M/T342M) with W96F, V133T, A223S, K237A, M240L, W241M, S244Q, G245Y, M315L, M341T
Kind of series: UV assay at […] nm, Michaelis-Menten fit. It is filed as biochemical. As to conditions: apparent; NADP+/iPrOH as hydride donor; purified His-tagged enzyme; read-out: app. KM.

Substrate in series [7]: C[C@@H]1CC(=O)c2ncnc(N3CCN(C(=O)OC(C)(C)C)CC3)c21
Put plainly: purified protein. Format: biochemical, Sporobolomyces salmonicolor. As to conditions: apparent; NADP+/iPrOH as hydride donor; purified His-tagged enzyme; substrate saturation was not reached.

`C[C@@H]1CC(=O)c2ncnc(N3CCN(C(=O)OC(C)(C)C)CC3)c21` [1a, ketone 1a]: the Km (usually the concentration of substrate that gives half-maximal velocity) in series [1] was found to be 144 ± 5.5 µM; in series [2] it was 175 ± 9.9 µM; in series [3] it was 300 ± 7.9 µM; in series [4], 472 ± 34.6 µM; in series [5], 163 ± 7.8 µM; in series [6], 11.9 ± 1.1 µM.

B1: Ssal-KRED (Sporobolomyces salmonicolor; A238K/F97W/L241M/L316M/M242W/Q245S/T342M/Y246G) (protein)
chain: T1 sequence (Q9UUN9 2-343 F97W/T134V/S224A/A238K/L241M/M242W/Q245S/Y246G/L316M/T342M) with V133T, A223S
notes: N-terminal 6xHis-tag, pET28b(+), purified; recombinant from E. coli
On to B1, for which, in series [7], the Km came to 1668 ± 103 µM; the catalytic constant (kcat) – broadly, the maximal rate divided by the concentration of active sites – is 0.763 ± 0.04 s⁻¹; the catalytic efficiency (kcat/Km) (commonly the turnover number divided by the Michaelis constant) stood at 458 M⁻¹ s⁻¹.
